Patent US12440492B2, “Pharmaceutical compositions comprising AKT protein kinase inhibitors” (Genentech, Inc., priority 2016, dated 2025)
Where a name gives a salt, the structure may show the parent alone.

What was measured:
Type in all cases: physicochemical
[1] = Particle size distribution (d10, d50, d90) by laser diffraction; conditions: spray dried amorphous ipatasertib monohydrochloride powder
From the text: FIG. 6 illustrates particle size distribution of the material of Example 6C (Batch HQ00003) spray dried with two-feed nozzle as obtained by laser diffraction A bimodal particle size distribution is obvious. FIG. 9 illustrates particle size distribution of spray dried material with rotary wheel nozzle, i.e. of the material of batch BS1506SA03 of Example 13 (Table 20) obtained using a Malvern Mastersizer 2000 equipped with Hydro 2000S wet sample dispersion unit (Malvern Instruments Ltd, Malvern/UK). A monomodal particle size distribution is obvious. The terms “d50 value” (sometimes also referred to as “d(0.5)-value”) and “mass-median diameter” (or MMD) can be used interchangeably and denote the average particle size by mass, i.e. the average equivalent diameter of a particle, which is defined as the diameter where 50% (w) of the particles of the ensemble have a larger equivalent spherical diameter, and the other 50% (w) have a smaller equivalent spherical diameter. In analogy, the term “d10-value” denotes the particle diameter wherein 10% (w) of the particles of the ensemble have a smaller equivalent spherical diameter. In analogy, the term “d90-value” denotes the particle diameter wherein 90% (w) of the particles of the ensemble have a smaller equivalent spherical diameter.

[2] = Solid state by X-ray powder diffraction; conditions: * indicates absence of crystalline API; monohydrochloride
From the text: Bragg's law describes the diffraction of crystalline material with the equation “2d·sin(theta)=n·lambda”, wherein “d” denotes perpendicular distance (in Angstroms) between pairs of adjacent planes in a crystal (“d-spacing”), “theta” denotes the Bragg angle, “lambda” denotes the wavelength and “n” is an integer. When Bragg's law is fulfilled, the reflected beams are in phase and interfere constructively so that Bragg diffraction peaks are observed in the X-ray diffraction pattern. At angles of incidence other than the Bragg angle, reflected beams are out of phase and destructive interference or cancellation occurs. […] The XRPD pattern of an amorphous material is further characterized by one or more amorphous halos.
The term “XRPD” denotes the analytical method of X-Ray Powder Diffraction. The repeatability of the angular values is in the range of 2Theta±0.2°, more particularly in the range of 2Theta±0.1°. The term “approximately” given in combination with an angular value denotes the variance which is in the range of 2Theta±0.2°, particularly in the range of 2Theta±0.1°. The relative XRPD peak intensity is dependent upon many factors such as structure factor, temperature factor, crystallinity, polarization factor, multiplicity, and Lorentz factor. Relative intensities may vary considerably from one measurement to another due to preferred orientation effects. According to USP 941 (US Pharmacopoeia, 37th Edition, General Chapter 941), relative intensities between two samples of the same material may vary considerably due to “preferred orientation” effects. Anisotropic materials adopting preferred orientation will lead to anisotropic distribution of properties such as modulus, strength, ductility, toughness, electrical conductivity, thermal expansion, etc., as described e.g. in Kocks U. F. et al. (Texture and Anisotropy: Preferred Orientations in Polycrystals and Their Effect on Materials Properties, Cambridge University Press, 2000). In XRPD but also Raman spectroscopy, preferred orientations cause a change in the intensity distribution. Preferred orientation effects are particularly pronounced with crystalline APIs of relatively large particle size.

[3] = Bulk density, tapped density and Carr index; conditions: spray dried amorphous ipatasertib monohydrochloride powder; monohydrochloride

Row | SMILES | Particle size d10 [1] | Particle size d50 [1] | Particle size d90 [1] | Solid state / Polymorphy (X-Ray, XRPD) [2] | Bulk density [3] | Tapped density [3]
1 | CC(C)NC[C@@H](C(=O)N1CCN(c2ncnc3c2[C@H](C)C[C@H]3O)CC1)c1ccc(Cl)cc1 [Composition 130710450, ipatasertib monohydrochloride] | 14 μm | 40 μm | 79 μm | Amorphous* | 0.42 gcm^−3 | 0.60 gcm^−3
2 | CC(C)NC[C@@H](C(=O)N1CCN(c2ncnc3c2[C@H](C)C[C@H]3O)CC1)c1ccc(Cl)cc1 [Composition 130710451, ipatasertib monohydrochloride] | 17 μm | 45 μm | 88 μm | Amorphous* | 0.48 gcm^−3 | 0.61 gcm^−3
3 | CC(C)NC[C@@H](C(=O)N1CCN(c2ncnc3c2[C@H](C)C[C@H]3O)CC1)c1ccc(Cl)cc1 [Composition 130710452, ipatasertib monohydrochloride] | 8.4 μm | 21 μm | 42 μm | Amorphous* | 0.32 gcm^−3 | 0.47 gcm^−3
4 | CC(C)NC[C@@H](C(=O)N1CCN(c2ncnc3c2[C@H](C)C[C@H]3O)CC1)c1ccc(Cl)cc1 [Composition 130810453, ipatasertib monohydrochloride] | 6.6 μm | 20 μm | 58 μm | Amorphous* | 0.30 gcm^−3 | 0.45 gcm^−3
5 | CC(C)NC[C@@H](C(=O)N1CCN(c2ncnc3c2[C@H](C)C[C@H]3O)CC1)c1ccc(Cl)cc1 [Composition 130810454, ipatasertib monohydrochloride] | 12 μm | 36 μm | 72 μm | Amorphous* | 0.47 gcm^−3 | 0.61 gcm^−3
6 | CC(C)NC[C@@H](C(=O)N1CCN(c2ncnc3c2[C@H](C)C[C@H]3O)CC1)c1ccc(Cl)cc1 [Composition 140110401, ipatasertib monohydrochloride] | 11.4 μm | 31 μm | 64 μm | amorphous* | 0.47 gcm^−3 | 0.61 gcm^−3
7 | CC(C)NC[C@@H](C(=O)N1CCN(c2ncnc3c2[C@H](C)C[C@H]3O)CC1)c1ccc(Cl)cc1 [Composition 140110402, ipatasertib monohydrochloride] | 7 μm | 20 μm | 46 μm | amorphous* | 0.45 gcm^−3 | 0.60 gcm^−3
8 | CC(C)NC[C@@H](C(=O)N1CCN(c2ncnc3c2[C@H](C)C[C@H]3O)CC1)c1ccc(Cl)cc1 [Composition 140110403, ipatasertib monohydrochloride] | 9.4 μm | 27 μm | 61 μm | amorphous* | 0.37 gcm^−3 | 0.52 gcm^−3
9 | CC(C)NC[C@@H](C(=O)N1CCN(c2ncnc3c2[C@H](C)C[C@H]3O)CC1)c1ccc(Cl)cc1 [Composition 140110404, ipatasertib monohydrochloride] | 12.5 μm | 47 μm | 108 μm | amorphous* | 0.49 gcm^−3 | 0.63 gcm^−3
10 | CC(C)NC[C@@H](C(=O)N1CCN(c2ncnc3c2[C@H](C)C[C@H]3O)CC1)c1ccc(Cl)cc1 [Composition 140110405, ipatasertib monohydrochloride] | 9.3 μm | 26 μm | 57 μm | amorphous* | 0.28 gcm^−3 | 0.40 gcm^−3
11 | CC(C)NC[C@@H](C(=O)N1CCN(c2ncnc3c2[C@H](C)C[C@H]3O)CC1)c1ccc(Cl)cc1 [Composition 140110406, ipatasertib monohydrochloride] | 10.2 μm | 26 μm | 53 μm | amorphous* | 0.41 gcm^−3 | 0.54 gcm^−3
12 | CC(C)NC[C@@H](C(=O)N1CCN(c2ncnc3c2[C@H](C)C[C@H]3O)CC1)c1ccc(Cl)cc1 [Composition 140110407, ipatasertib monohydrochloride] | 7.1 μm | 16 μm | 28 μm | amorphous* | 0.29 gcm^−3 | 0.43 gcm^−3
13 | CC(C)NC[C@@H](C(=O)N1CCN(c2ncnc3c2[C@H](C)C[C@H]3O)CC1)c1ccc(Cl)cc1 [Composition 140110408, ipatasertib monohydrochloride] | 9.3 μm | 26 μm | 58 μm | amorphous* | 0.34 gcm^−3 | 0.50 gcm^−3
14 | CC(C)NC[C@@H](C(=O)N1CCN(c2ncnc3c2[C@H](C)C[C@H]3O)CC1)c1ccc(Cl)cc1 [Composition 140110409, ipatasertib monohydrochloride] | 11.3 μm | 35 μm | 79 μm | amorphous* | 0.27 gcm^−3 | 0.39 gcm^−3
15 | CC(C)NC[C@@H](C(=O)N1CCN(c2ncnc3c2[C@H](C)C[C@H]3O)CC1)c1ccc(Cl)cc1 [Composition 140110410, ipatasertib monohydrochloride] | 8.1 μm | 23 μm | 50 μm | amorphous* | 0.18 gcm^−3 | 0.30 gcm^−3
16 | CC(C)NC[C@@H](C(=O)N1CCN(c2ncnc3c2[C@H](C)C[C@H]3O)CC1)c1ccc(Cl)cc1 [Composition 140110411, ipatasertib monohydrochloride] | 9.2 μm | 27 μm | 58 μm | amorphous* | 0.37 gcm^−3 | 0.51 gcm^−3
17 | CC(C)NC[C@@H](C(=O)N1CCN(c2ncnc3c2[C@H](C)C[C@H]3O)CC1)c1ccc(Cl)cc1 [Composition 140210412, ipatasertib monohydrochloride] | 13 μm | 46 μm | 94 μm | amorphous* | 0.47 gcm^−3 | 0.60 gcm^−3
18 | CC(C)NC[C@@H](C(=O)N1CCN(c2ncnc3c2[C@H](C)C[C@H]3O)CC1)c1ccc(Cl)cc1 [Composition 140210413, ipatasertib monohydrochloride] | 10 μm | 28 μm | 56 μm | amorphous* | 0.45 gcm^−3 | 0.59 gcm^−3
